Tested on: AMPK
Assay: AMPK activation (pAMPK Western blotting) in muscle cells
Assay type: cell-based
Settings: 1 hour, vesicles 0, 0.1, 1, 10 μg/ml, metformin 10 μg/ml
Experimental: Therefore, an experiment was performed in the following manner to evaluate the effect of Lactobacillus rhamnosus-derived vesicles (MDH-003) on cellular aging through AMPK activation within cells. That is, to evaluate AMPK activity according to the concentration of Lactobacillus rhamnosus-derived vesicles in muscle cells, cells were treated with Lactobacillus rhamnosus-derived vesicles at concentrations of 0, 0.1, 1, and 10 μg/ml for 1 hour. As a control group, metformin, which suppresses aging, was used at a concentration of 10 μg/ml. After treating the cells with the drug, the difference in the amount of pAMPK, which is an important indicator in AMPK signaling, was measured by Western blotting.

In the case of `CN(C)C(=N)N=C(N)N` [metformin], the “phosphorylation of AMPK (pAMPK)” value is reported as “enhanced”.
